Results from patent US11612586B2, “Indole regulation of antigen presenting cells” (THE TEXAS A&M UNIVERSITY SYSTEM, priority 2016, dated 2023).

Assays:
Stat3 = assay: IL-6 induced pSTAT3 signaling in splenic DCs; assay type: cell-based, mouse; conditions: splenic DCs, 1 mM TDMM 24 hours, IL-6 (10 ng/ml) 30 minutes
Experimental: Briefly, flow cytometric analysis was performed on splenic DCs conditioned with the indicated TDMMs for 24 hours and then subsequently stimulated with 10 ng/ml IL-6 for 30 minutes.

IL-12 = IL-12 production in BMDCs, intracellular staining, flow cytometry; assay type: cell-based, mouse
Experimental: Intracellular staining was performed to assess TNF (FIG. 3A) and IL-12 (FIG. 3B) production.
Briefly, bone marrow was harvested from femurs of mice and cultured for 7 days in the presence of DC-skewing cytokines, GM-CSF and IL-4. […] The pro-inflammatory cytokines, IL-6 and IL-12, were specifically queried. […] Immune cells communicate largely through the production of soluble factors including cytokines, and DCs detect these signals and determine their effector functions accordingly.
The inventors performed a series of assays where bone marrow derived macrophages (BMDMs), bone marrow derived dendritic cells (BMDCs), and splenic dendritic cells (splenic DCs), were exposed to a series of TDMMs, including indole, indole-3-acetate (I3AT), 5-hydroxyindole (5HI), and indole-3-pyruvate (I3P), as well as indole-3-carbinol (I3C; a plant derived compound) to be used for a positive control (1 mM for 24 hours). The BMDMs and BMDCs were stimulated with LPS for 4 hours and assayed at day 7 for expression of various pro-inflammatory cytokines. In a similar assay, the BMDMs and BMDCs were stimulated with LPS or CpG, respectively, for 15 minutes and assayed for pAKT and pERK signaling, which is a reflection of pro-inflammatory response.

[1] = system: Salmonella Pathogenicity Island-1 (SPI-1) genes; assay: Expression of Salmonella Pathogenicity Island-1 genes; assay type: cell-based, Salmonella Typhimurium
B220 (CD45R) = assay: B220 surface expression on BMDCs; assay type: cell-based, mouse; conditions: BMDCs cultured from day 3 with indole (1 mM) or retinoic acid (1 μM)
Experimental: FIGS. 12A and 12B graphically illustrate that indole induces CCR9 and B220 on DCs. BMDCs were cultured in the presence of indole (1 mM), retinoic acid (1 μM), or DMF solvent control from day 3. On day 7, DCs were surface stained for expression of CCR9 and B220 and analyzed by flow cytometry. […] Mean of three independent experiments. * indicates p<0.05 for one-way ANOVA followed by Dunnett's post-test.
An indole-induced upregulation of the B220 (CD45R) antigen was also observed (FIGS. 12A and 12B), which is widely used to distinguish the plasmacytoid DC lineage and is believed to contribute to gut homing. However, more recently B220 has been reported to distinguish a DC subset more closely developmentally related to conventional rather than plasmacytoid DCs and a precursor to resident CD8+ and CD8− conventional DCs.

AhR = target: T1, AhR (Homo sapiens, UniProt P35869); conditions: cited from earlier work
T1 construct: host or cells: CaC-2 intestinal cells; yeast; a liver cancer cell line
T1 sequence (P35869 11-848): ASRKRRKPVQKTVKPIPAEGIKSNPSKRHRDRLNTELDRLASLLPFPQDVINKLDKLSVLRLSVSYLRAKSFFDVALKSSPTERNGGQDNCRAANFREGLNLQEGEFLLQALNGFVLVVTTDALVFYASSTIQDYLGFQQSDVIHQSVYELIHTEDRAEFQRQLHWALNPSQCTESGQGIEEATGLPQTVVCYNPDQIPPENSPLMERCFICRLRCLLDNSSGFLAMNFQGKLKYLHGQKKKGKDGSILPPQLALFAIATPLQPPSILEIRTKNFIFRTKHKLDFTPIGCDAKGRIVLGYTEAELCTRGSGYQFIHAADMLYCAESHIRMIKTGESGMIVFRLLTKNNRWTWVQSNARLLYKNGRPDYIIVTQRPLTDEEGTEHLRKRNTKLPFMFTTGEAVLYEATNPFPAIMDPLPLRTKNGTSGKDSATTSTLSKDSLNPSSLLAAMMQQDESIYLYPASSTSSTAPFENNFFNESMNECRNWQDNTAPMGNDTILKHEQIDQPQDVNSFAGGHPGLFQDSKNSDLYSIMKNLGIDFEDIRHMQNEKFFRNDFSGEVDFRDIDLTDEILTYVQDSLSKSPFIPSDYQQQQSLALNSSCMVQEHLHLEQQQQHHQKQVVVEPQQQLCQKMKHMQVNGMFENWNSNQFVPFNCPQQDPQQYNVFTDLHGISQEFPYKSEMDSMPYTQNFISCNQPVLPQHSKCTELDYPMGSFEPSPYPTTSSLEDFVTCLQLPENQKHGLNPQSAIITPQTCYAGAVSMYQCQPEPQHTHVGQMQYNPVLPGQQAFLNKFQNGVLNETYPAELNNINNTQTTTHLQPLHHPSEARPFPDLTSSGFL

[2] = system: reactive oxygen species (ROS); assay: Reactive oxygen species production in DC2.4 and BMDC
Salmonella Typhimurium = assay: Salmonella invasion of HeLa epithelial cells (Salmonella exposed to indole); assay type: cell-based

c1ccc2[nH]ccc2c1 [Indole, indole]
IL-6 induced pSTAT3 expression, CD4+ DCs (Stat3): ↓↓ | IL-6 induced pSTAT3 expression, CD4− DCs (Stat3): ↓↓ | reduction in IL-12 (IL-12; BMDCs exposed to indole from day 3 of 7 day culture, LPS stimulation): 40% | IL-12 (IL-12; BMDCs, 1 mM TDMM 24 hours, LPS (1 ug/ml) 4 hours): ↓↓ | inhibition of IL-12 production (IL-12; BMDCs, indole 24 hours (overnight), LPS 1 ug/ml 4 hours): ≥ 2 fold | expression of four SPI-1 genes involved in invasion [1]: decrease in expression | effect of short chain fatty acids on attenuation of SPI-1 gene expression ([1]; indole together with short chain fatty acids): synergistically enhanced | B220 (CD45R) expression on BMDCs (B220 (CD45R)): upregulation | AhR activity in CaC-2 intestinal cells (AhR; previous finding of the inventors): antagonist | AhR effect in a liver cancer cell line (AhR; previously reported): antagonistic | AhR effect in yeast (AhR; previously reported): agonistic | secretion of reactive oxygen species (ROS) [2]: intact | decrease of Salmonella invasion of HeLa epithelial cells (Salmonella Typhimurium): 160 fold
